“And” between values parts separate entries of the source, which are not always exact repeats. Equal entries are not always repeated. The source made the active and inactive calls.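 How the source made its calls: active means compounds giving half or more protection of infected cells from virus-caused growth loss, again on retest; inactive means the rest.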 *1 amine or outer side, *2 acyl side, *3 side chain or, on linkers, in order; H or OH if unused. Where a SMILES comes first, the peptide text is derived from it. Bridges are numbered along the chain shown (N, C = ends). [ ]: non-standard residue; d: D form. The star is where a group is joined. X12 = O=C(C1CCCNN1[*:1])[*:2]; For = O=C*
Test system: CEM cells HIV-1 protection, formazan growth assay
Assay: NCI AIDS Antiviral Assay
Conditions: for IC50: measured here: growth of uninfected CEM cells
How it was run: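 Human CEM cells, uninfected and HIV-1-infected, exposed to five drug concentrations; growth measured by soluble formazan assay and scored as percent protection from infection, with protecting compounds retested.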

SMILES | EC50 [µM] | IC50 | outcome
CO[C@@H]1C=C[C@@]23c4cc5c(cc4C(=O)O[C@H]2CN(C)[C@H]3C1)OCO5 | > 380 | > 380 µM | –
O=C(Nc1cccc2nsnc12)c1ccc(C(=O)Nc2cccc3nsnc23)cc1 | > 22.9 | > 22.9 µM | –
CCOC(=O)/C(C#N)=C/c1c[nH]c2ccccc12 | > 200 | 158 µM | –
COc1nc2c(c(=O)n1C)N[C@H]1[C@H](OC(C)=O)[C@@H](OC(C)=O)CO[C@H]1N2 | > 200 | > 200 µM | –
O=S1(=O)CCCCS1 | > 200 | 5.37 µM | –
COC(=O)CN1CCSC1=NC#N | – | – | inactive
O=C(Nc1ccccc1)N1N=C(c2ccccc2)C1c1ccccc1 (stereo not given) | > 200 | 24.5 µM | –
c1ccc([P+](CCOCC[P+](c2ccccc2)(c2ccccc2)c2ccccc2)(c2ccccc2)c2ccccc2)cc1 | > 200 | 49 µM | –
C/C(CCN(C)C)=N\OC(=O)c1ccccc1 | > 200 | > 200 µM | –
CC1OC(OC2C(O)COC(OC3C(C)OC(OC4C(OC(=O)[C@]56CCC(C)(C)C[C@@H]5C5=CCC7[C@@]8(C)C[C@H](O)[C@H](OC9OC(CO)C(O)C(O)C9O)[C@@](C)(CO)[C@@H]8CC[C@@]7(C)[C@]5(C)CC6)OCC(O)C4O)C(O)C3O)C2O)C(O)C(O)C1O (stereo not given in full) | > 100 | 29.5 µM | –
COc1ccc(-c2c(C#N)c(-c3ccc(C)cc3)n(NS(=O)(=O)c3ccc(C)cc3)c(=O)c2C#N)cc1 | > 200 | 17.4 µM | –
CCOC(=O)C1CCc2c1c(C#N)c1[nH]c3ccccc3n1c2=O (stereo not given) | > 234 | > 234 µM | –
CCN(CC)c1ccc2cc(-c3nc4ccccc4s3)c(=O)oc2c1 | > 20.4 | > 20.4 µM | –
CCOC(=O)C1C(=O)c2cccc(OC)c2C2COC(=O)N12 (stereo not given) | > 251 | 229 µM | –
Brc1ccc(SSc2ccc(Br)cc2)cc1 | > 200 | 9.12 µM and 3.39 µM | –
CCCCCC=C(c1cc(Br)c(OC)c(Br)c1)c1cc(Br)c(OC)c(Br)c1 | > 151 | > 151 µM | –
CC1=N/C(=C\c2ccc(/C=C3/N=C(C)OC3=O)cc2)C(=O)O1 | > 851 | 46.8 µM | –
Cc1c(C)c2ccc(O)cc2[nH]c1=O | > 200 | 182 µM | –
O=S1(=O)CS(=O)(=O)CS(=O)(=O)C1 | > 200 | 89.1 µM | –
CC(=O)OCC1OC(n2c(=O)n(-c3ccccc3)c(=O)c3ccccc32)C(OC(C)=O)C(OC(C)=O)C1OC(C)=O (stereo not given) | > 24 | > 24 µM | –
CC1=C(N2CC2)C(=O)c2nc3n(c2C1=O)CCC3O (stereo not given) | – | – | inactive

SMILES | EC50 [µM] | IC50 | outcome
CC1(C=O)C(=O)CCC2(C)C3CC(=O)OC3CCC12 (stereo not given) | – | – | inactive
C1CN2CCC1C1(C2)SSC2(CN3CCC2CC3)S1 (stereo not given) | > 200 | > 200 µM | –
CCC1=[N+]([O-])C(C)(C)NC1(C)C | > 200 | > 200 µM | –
COc1cc(C(c2cc(OC)c(OC)c(OC)c2)N2C(=O)CCC2C(=O)O)cc(OC)c1OC (stereo not given) | > 200 | > 200 µM | –
COc1cccc(/C=N/[N-]C(N)=O)c1[O-].[Co+2].[OH3+] | > 126 | 61.7 µM | –
CN1N=C(c2ccccc2)c2cc(Cl)ccc2N=C1N/N=C/c1ccc(N(C)C)cc1 | > 200 | > 200 µM | –
O=[N+]([O-])c1ccc2c([N+](=O)[O-])ccc3c2c1CC3 | > 200 | 21.9 µM | –
O=C(CSc1nc(-c2ccccc2)c(-c2ccccc2)[nH]1)N/N=C/c1ccc(Cl)cc1 | > 20.9 | 12 µM | –
O=C(CCC(=O)Nc1cccc(C(F)(F)F)c1)CC(=O)c1ccc2ccccc2c1 | – | – | inactive
COc1ccc2c(c1)c[n+](C)c1c3cc(OC)c(OC)cc3ccc21 | > 151 | 1.32 µM and 1.45 µM and 1.35 µM | –
Cc1ccc(C(=O)N2c3ccccc3N(C)n3cccc3C2CC(=O)O)cc1 (stereo not given) | > 661 | 148 µM | –
COC(=O)c1ccccc1C1CN=NC12Cc1cccc(C)c1C2=O (stereo not given) | > 200 | 57.5 µM | –
C/C=C(\NC(=O)C(CCCCN)NC(=O)C(C)NC(=O)C1CSC(C)C(NC(=O)C2CSCC(NC(=O)C(C)NC(=O)C(N)C(C)CC)C(=O)NC(CCCCN)C(=O)NC(Cc3ccccc3)C(=O)NC(CC(C)C)C(=O)N2)C(=O)N2CCCC2C(=O)NCC(=O)N1)C(=O)NCC(=O)NC1CSCC2NC(=O)C(Cc3ccc(O)cc3)NC(=O)C(CSC=CNC2=O)NC(=O)C(CC(N)=O)NC(=O)C(Cc2ccccc2)NC1=O (stereo not given) | – | – | inactive
Cc1ccc(S(=O)(=O)NNC2Oc3cc4c(cc3C(c3ccccc3O)C2C)OCO4)cc1 (stereo not given) | > 200 | 26.3 µM | –
COc1ccccc1NC(=O)CC(=O)N/N=C/c1ccc(N(CCC#N)S(=O)(=O)c2ccccc2)cc1 | > 182 | > 182 µM | –
CC(CCC#CC(=O)O)OC1CCCCO1 (stereo not given) | > 200 | > 200 µM | –
Cc1cc(C(C)(C)C)oc(=O)c1NC(=O)c1ccccc1 | > 200 | 155 µM | –
C[C@H]1NC(=O)C2CCCCN2C(=O)CN(C)C(=O)CNC(=O)C2CCCCN2C(=O)[C@@H](NC(=O)c2nc3ccccc3cc2O)[C@@H](C)NC(=O)C2CCCCN2C(=O)CN(C)C(=O)CNC(=O)[C@@H]2CCCCN2C(=O)C1NC(=O)c1nc2ccccc2cc1O (stereo not given in full) | > 10.5 | 0.0427 µM | –
CCC(C)C(NC=O)C(=O)NC1C(=O)NC(CC(C)C)C(=O)NC(C(C)C)C(=O)N2NCCCC2C(=O)NC(CC(C)C)C(=O)N2NCCCC2C(=O)OC1C (stereo not given) (For-ITLV[X12]L[X12]; ester 2-C; configuration not given here) | > 45.7 | 25.1 µM | –
CCN(CC)CCOc1ccc(/C(C#N)=C/c2cccc3ccccc23)cc1 | > 200 | 1.78 µM | –
CCOP(=S)(OCC)SC(C)(C)C | > 107 | > 107 µM | –

SMILES | EC50 [µM] | IC50 | outcome
C[C@@H]1c2c([nH]c(=O)[nH]c2=O)O[C@@H]1c1ccccc1 | > 200 | > 200 µM | –
COC(=O)N(CO)CO | > 200 | > 200 µM | –
O=c1oc2ccccc2c(O)c1C(c1cnc2ccccc2c1)c1c(O)c2ccccc2oc1=O | – | – | inactive
CCN(CC)c1c(-c2c(N(CC)CC)c(OC(C)=O)c3sccn3c2=O)c(=O)n2ccsc2c1OC(C)=O | > 200 | > 200 µM | –
CC(C)(C)C(=O)C(c1ccc(-c2cscn2)cc1)c1ccc(-c2cscn2)cc1 | > 2.51 | > 2.51 µM | –
CC1Oc2cc3c(-c4c(O)cc(O)c5c(O)c6c(cc45)OC(C)C(C)C6=O)c(O)cc(O)c3c(O)c2C(=O)C1C (stereo not given) | > 34.7 | 0.38 µM | –
CC(C)=CCC[C@@H](C)C1=C(O)C(O)C(C)=C2N=C(c3ccccc3)C(=O)OC21 (stereo not given in full) | > 200 | 3.8 µM | –
O=C(NC12CC3CC(CC(C3)C1)C2)C(=O)c1c[nH]c2ccc(Cl)cc12 | – | – | inactive
CC1=C(C2CC(C)CC(OCOCc3ccccc3)O2)C(C)(C)CCC1 (stereo not given) | > 20 | > 20 µM | –
Cc1cn(C2CC(Sc3ccccc3)C(CO)O2)c(=O)[nH]c1=O (stereo not given) | > 200 | > 200 µM | –
Nc1c[nH][nH]c(=S)c1=S | > 200 | 3.63 µM | –
CC(=O)Nc1ccc(/C=C2\SC(=S)N(/C=C3/C(=O)N(c4ccccc4)N=C3C)C2=O)cc1 | > 200 | 72.4 µM | –
O=C(NO)Nc1ccc(Cl)c(Cl)c1 | – | 56.2 µM | inactive
CC(=O)NNC(=S)N/C=C(\C#N)C(=O)c1ccc2ccccc2c1 | > 200 | > 200 µM | –
COc1ccc(-c2c(C#N)c(NC(=S)NC(=O)c3ccccc3)nc3c2CCCC3)cc1OC | > 200 | 115 µM | –
Cn1ccnc1C(c1nccn1C)C(C)(C)[N+](=O)[O-] | > 339 | > 339 µM | –
Cn1nccc2c(=O)n(C)c(=O)nc1-2 | > 200 | > 200 µM | –
Cc1nnnn1C12CC3CC(CC(C3)C1)C2 | – | – | inactive
CC1=C(C(=O)N[C@@H](Cc2ccccc2)C(=O)O)N2C(=O)[C@@H](NC(=O)[C@@H](N)CC(C)C)[C@H]2SC1 | 174 | > 200 µM | –
O=C(O)c1cccc(Sc2ccccc2)c1 | > 407 | 251 µM | –
C/C(=N/NC(=O)C(N)=O)C(CC(C(=O)Nc1ccccc1C)/C(C)=N\NC(=O)C(N)=O)C(=O)Nc1ccccc1C (stereo not given) | > 158 | 79.4 µM | –

SMILES | EC50 [µM] | IC50 | outcome
CCN(CC)CCCCCCCNc1c2ccc(Cl)cc2nc2ccc(OC)cc12 | > 2 | 0.427 µM | –
Cc1noc(NS(=O)(=O)c2ccc(NC(=S)N/C=C(\C#N)C(N)=O)cc2)c1C | – | – | inactive
COc1cc(O)c2c(c1O)C(=O)c1cc(C)ncc1C2=O | – | – | inactive
CC12O[C@H](c3ccccc3)[C@H](c3ccccc3)N1C(=O)C1(C(=O)OCc3ccccc3)CC12 (stereo not given in full) | > 22.9 | > 22.9 µM | –
COc1ccc(-c2c3c([nH]c(=S)c2C#N)CCC3)cc1 | 178 | > 200 µM | –
COC1/C=C/OC2(C)Oc3c(C)c(O)c4c(O)c(c(C=NN5CCCCCCCCCC5)c(O)c4c3C2=O)NC(=O)/C(C)=C/C=C/C(C)C(O)C(C)C(O)C(C)C(OC(C)=O)C1C (stereo not given) | > 200 | 6.17 µM | –
CC(CN)OC12CC3CC(CC(C3)C1)C2 (stereo not given) | > 200 | 105 µM | –
O=c1c(O)c(-c2ccc(O)c(O)c2)oc2cc(O)cc(O)c12.[Zr] | > 200 | > 200 µM | –
CC(=O)CC[N+](C)(C)C | – | – | inactive
O=C(C1OC1c1ccc([N+](=O)[O-])cc1)C12CC3CC(CC(C3)C1)C2 (stereo not given) | > 200 | 12.3 µM | –
CC(C)(C)C1=NC(=S)SC2=NC(=O)C3(NN21)c1ccccc1-c1ccccc13 | > 200 | 20 µM | –
CCC1(CC(=O)N(C)C)CCCN(C(=O)Oc2ccccc2)C1 (stereo not given) | > 31.6 | > 31.6 µM | –
c1ccc(C2=NN2c2ccccc2)cc1 | – | – | inactive
CCOC(=O)c1cc2cc([N+](=O)[O-])ccc2oc1=O | > 105 | > 105 µM | –
O=[N+]([O-])c1ccc(NN=C2CN3CCN(C2)c2ccccc23)c([N+](=O)[O-])c1 | > 200 | 162 µM | –
O/N=C1\CC2(N3CCOCC3)CCC1(Cc1ccccc1)CC2 | > 100 | > 100 µM | –
CCCCCCCCSC(SCCCCCCCC)=C1C(=O)N(c2ccccc2)N=C1C | > 28.8 | > 28.8 µM | –
C=CCN1CCC(O)(c2cc(C(=O)OCC)[nH]c2-c2cc(C)no2)C1 (stereo not given) | > 200 | > 200 µM | –
